System: normal and reperfused infarcted myocardium
Experiment: inversion recovery echo planar imaging T1 measurement after coronary occlusion 60 min and reperfusion 120 min
Description: Sprague-Dawley rats (female, 270-320 g, n=24) were subjected to occlusion of the anterior branch of the left main coronary artery for 60 minutes, followed by reperfusion for 120 minutes before injecting the test agent. A catheter was placed in the tail vein for administration of contrast media. Animals were connected to an ECG patient monitor and placed in the magnet such that the heart of each rat was at or near ioscenter. Magnetic field was optimized for a central slab of 6 mm thickness, within which the 2 mm section to be imaged was located. Inversion and slice select pulses were calibrated. Inversion recovery echo planar imaging was then used to measure baseline T1 values for myocardium and left ventricle chamber blood.
MnDPDP was then administered at doses of 25, 50 and 100 μmole/kg by intravenous injection of 2.5, 5 and 10 ml/kg, respectively, of the test solution which contained a 10 mM solution of MnDPDP. These injections were followed by a flush of physiologic saline solution (0.9%) such that the combined volumes of test agent and saline flush was 11 ml/kg. All injected solutions were warmed before being administered and were injected slowly over 1.5 mins. T1 values were remeasured at 5 minute intervals during the first 60 minutes after injection. Occasional animals were imaged at 90 minutes for T1 determination (EPI) and for visual inspection of contrast on STIR (short TI inversion recovery) prepared spin echo images.
After imaging was completed, animals were sacrificed by an overdose of pentobarbital and the heart was excised, sectioned and stained in triphenyltetrazolium chloride solution to define the infarcted region.

[1] = 25 μmol/kg, 5 min after injection
[2] = 25 μmol/kg, 10 min after injection
[3] = 25 μmol/kg, 15 min after injection
[4] = 25 μmol/kg, 20 min after injection
[5] = 25 μmol/kg, 25 min after injection
[6] = 25 μmol/kg, 30 min after injection
[7] = 25 μmol/kg, 35 min after injection
[8] = 25 μmol/kg, 40 min after injection
[9] = 25 μmol/kg, 45 min after injection
[10] = 25 μmol/kg, 50 min after injection
[11] = 25 μmol/kg, 55 min after injection
[12] = 25 μmol/kg, 60 min after injection
[13] = 50 μmol/kg, 5 min after injection
[14] = 50 μmol/kg, 10 min after injection
[15] = 50 μmol/kg, 15 min after injection
[16] = 50 μmol/kg, 20 min after injection
[17] = 50 μmol/kg, 25 min after injection
[18] = 50 μmol/kg, 30 min after injection
[19] = 50 μmol/kg, 35 min after injection
[20] = 50 μmol/kg, 40 min after injection
[21] = 50 μmol/kg, 45 min after injection
[22] = 50 μmol/kg, 50 min after injection
[23] = 50 μmol/kg, 55 min after injection
[24] = 50 μmol/kg, 60 min after injection
[25] = 100 μmol/kg, 5 min after injection
[26] = 100 μmol/kg, 10 min after injection
[27] = 100 μmol/kg, 15 min after injection
[28] = 100 μmol/kg, 20 min after injection
[29] = 100 μmol/kg, 25 min after injection
[30] = 100 μmol/kg, 30 min after injection
[31] = 100 μmol/kg, 35 min after injection
[32] = 100 μmol/kg, 40 min after injection
[33] = 100 μmol/kg, 45 min after injection
[34] = 100 μmol/kg, 50 min after injection
[35] = 100 μmol/kg, 55 min after injection
[36] = 100 μmol/kg, 60 min after injection

Cc1ncc(COP(=O)(O)O)c(CN(CCN(CC(=O)[O-])Cc2c(COP(=O)(O)O)cnc(C)c2O)CC(=O)[O-])c1O.[Mn+2] [MnDPDP, manganese (II) chelate of N,N′-bis-(pyridoxal-5-phosphate)-ethylenediamine-N,N′-diacetic acid]
T1 Blood [1]: 1.04 ± 0.02 s
T1 Infarct [1]: 0.76 ± 0.02 s
T1 normal [1]: 0.77 ± 0.01 s
T1 Blood [2]: 1.11 ± 0.02 s
T1 Infarct [2]: 0.82 ± 0.02 s
T1 normal [2]: 0.76 ± 0.01 s
T1 Blood [3]: 1.14 ± 0.02 s
T1 Infarct [3]: 0.86 ± 0.03 s
T1 normal [3]: 0.75 ± 0.01 s
T1 Blood [4]: 1.16 ± 0.02 s
T1 Infarct [4]: 0.90 ± 0.03 s
T1 normal [4]: 0.73 ± 0.01 s
T1 Blood [5]: 1.18 ± 0.02 s
T1 Infarct [5]: 0.92 ± 0.03 s
T1 normal [5]: 0.72 ± 0.01 s
T1 Blood [6]: 1.18 ± 0.02 s
T1 Infarct [6]: 0.93 ± 0.03 s
T1 normal [6]: 0.70 ± 0.01 s
T1 Blood [7]: 1.19 ± 0.02 s
T1 Infarct [7]: 0.95 ± 0.03 s
T1 normal [7]: 0.70 ± 0.01 s
T1 Blood [8]: 1.20 ± 0.02 s
T1 Infarct [8]: 0.98 ± 0.03 s
T1 normal [8]: 0.69 ± 0.01 s
T1 Blood [9]: 1.21 ± 0.02 s
T1 Infarct [9]: 0.99 ± 0.03 s
T1 normal [9]: 0.68 ± 0.01 s
T1 Blood [10]: 1.22 ± 0.02 s
T1 Infarct [10]: 1.00 ± 0.03 s
T1 normal [10]: 0.67 ± 0.01 s
T1 Blood [11]: 1.22 ± 0.02 s
T1 Infarct [11]: 1.01 ± 0.03 s
T1 normal [11]: 0.67 ± 0.01 s
T1 Blood [12]: 1.23 ± 0.02 s
T1 Infarct [12]: 1.02 ± 0.03 s
T1 normal [12]: 0.65 ± 0.01 s
T1 Blood [13]: 0.84 ± 0.02 s
T1 Infarct [13]: 0.59 ± 0.01 s
T1 normal [13]: 0.69 ± 0.01 s
T1 Blood [14]: 0.93 ± 0.03 s
T1 Infarct [14]: 0.65 ± 0.01 s
T1 normal [14]: 0.68 ± 0.01 s
T1 Blood [15]: 0.97 ± 0.02 s
T1 Infarct [15]: 0.69 ± 0.01 s
T1 normal [15]: 0.67 ± 0.01 s
T1 Blood [16]: 1.00 ± 0.02 s
T1 Infarct [16]: 0.73 ± 0.01 s
T1 normal [16]: 0.67 ± 0.01 s
T1 Blood [17]: 1.02 ± 0.03 s
T1 Infarct [17]: 0.76 ± 0.02 s
T1 normal [17]: 0.64 ± 0.01 s
T1 Blood [18]: 1.04 ± 0.03 s
T1 Infarct [18]: 0.80 ± 0.01 s
T1 normal [18]: 0.63 ± 0.01 s
T1 Blood [19]: 1.05 ± 0.03 s
T1 Infarct [19]: 0.82 ± 0.02 s
T1 normal [19]: 0.62 ± 0.01 s
T1 Blood [20]: 1.06 ± 0.03 s
T1 Infarct [20]: 0.85 ± 0.03 s
T1 normal [20]: 0.60 ± 0.01 s
T1 Blood [21]: 1.08 ± 0.03 s
T1 Infarct [21]: 0.87 ± 0.02 s
T1 normal [21]: 0.60 ± 0.01 s
T1 Blood [22]: 1.08 ± 0.03 s
T1 Infarct [22]: 0.88 ± 0.02 s
T1 normal [22]: 0.59 ± 0.01 s
T1 Blood [23]: 1.08 ± 0.03 s
T1 Infarct [23]: 0.89 ± 0.03 s
T1 normal [23]: 0.58 ± 0.01 s
T1 Blood [24]: 1.10 ± 0.03 s
T1 Infarct [24]: 0.91 ± 0.03 s
T1 normal [24]: 0.58 ± 0.01 s
T1 Blood [25]: 0.63 ± 0.03 s
T1 Infarct [25]: 0.46 ± 0.02 s
T1 normal [25]: 0.59 ± 0.01 s
T1 Blood [26]: 0.74 ± 0.03 s
T1 Infarct [26]: 0.47 ± 0.02 s
T1 normal [26]: 0.59 ± 0.01 s
T1 Blood [27]: 0.80 ± 0.02 s
T1 Infarct [27]: 0.51 ± 0.02 s
T1 normal [27]: 0.58 ± 0.01 s
T1 Blood [28]: 0.83 ± 0.02 s
T1 Infarct [28]: 0.55 ± 0.03 s
T1 normal [28]: 0.57 ± 0.01 s
T1 Blood [29]: 0.87 ± 0.02 s
T1 Infarct [29]: 0.58 ± 0.03 s
T1 normal [29]: 0.57 ± 0.01 s
T1 Blood [30]: 0.89 ± 0.02 s
T1 Infarct [30]: 0.60 ± 0.03 s
T1 normal [30]: 0.55 ± 0.01 s
T1 Blood [31]: 0.91 ± 0.03 s
T1 Infarct [31]: 0.61 ± 0.03 s
T1 normal [31]: 0.54 ± 0.01 s
T1 Blood [32]: 0.92 ± 0.03 s
T1 Infarct [32]: 0.63 ± 0.03 s
T1 normal [32]: 0.54 ± 0.01 s
T1 Blood [33]: 0.93 ± 0.03 s
T1 Infarct [33]: 0.65 ± 0.03 s
T1 normal [33]: 0.53 ± 0.01 s
T1 Blood [34]: 0.94 ± 0.03 s
T1 Infarct [34]: 0.66 ± 0.03 s
T1 normal [34]: 0.53 ± 0.01 s
T1 Blood [35]: 0.97 ± 0.02 s
T1 Infarct [35]: 0.69 ± 0.03 s
T1 normal [35]: 0.52 ± 0.01 s
T1 Blood [36]: 0.97 ± 0.03 s
T1 Infarct [36]: 0.69 ± 0.03 s
T1 normal [36]: 0.52 ± 0.01 s
slow E2 component (blood pool clearance): ~0.01 per min
E1, bi-exponential fit of ΔR1 clearance (dose 25, ROI blood): 0.21 min⁻¹
E2, bi-exponential fit of ΔR1 clearance (dose 25, ROI blood): 0.011 ± 0.001 min⁻¹
E1, bi-exponential fit of ΔR1 clearance (dose 25, ROI infarct): 0.15 min⁻¹
E2, bi-exponential fit of ΔR1 clearance (dose 25, ROI infarct): 0.015 ± 0.001 min⁻¹
intercept, linear fit - increase in normal myocardium (dose 25, ROI normal): 0.187
slope, linear fit - increase in normal myocardium (dose 25, ROI normal): 0.0043 min⁻¹
E1, bi-exponential fit of ΔR1 clearance (dose 50, ROI blood): 0.15 min⁻¹
E2, bi-exponential fit of ΔR1 clearance (dose 50, ROI blood): 0.009 ± 0.001 min⁻¹
E1, bi-exponential fit of ΔR1 clearance (dose 50, ROI infarct): 0.058 min⁻¹
E2, bi-exponential fit of ΔR1 clearance (dose 50, ROI infarct): 0.005 ± 0.003 min⁻¹
intercept, linear fit - increase in normal myocardium (dose 50, ROI normal): 0.294
slope, linear fit - increase in normal myocardium (dose 50, ROI normal): 0.0056 min⁻¹
E1, bi-exponential fit of ΔR1 clearance (dose 100, ROI blood): 0.18 min⁻¹
E2, bi-exponential fit of ΔR1 clearance (dose 100, ROI blood): 0.011 ± 0.001 min⁻¹
E1, bi-exponential fit of ΔR1 clearance (dose 100, ROI infarct): 0.11 min⁻¹
E2, bi-exponential fit of ΔR1 clearance (dose 100, ROI infarct): 0.010 ± 0.003 min⁻¹
intercept, linear fit - increase in normal myocardium (dose 100, ROI normal): 0.523
slope, linear fit - increase in normal myocardium (dose 100, ROI normal): 0.0050 min⁻¹
plasma half life (equivalent to E2 component): ~1.17 h
clearance or accumulation of test agent (over 60 minutes after injection, 25, 50 and 100 μmole/kg): cleared from both blood and infarcted myocardium but accumulated in uninfarcted myocardium
